According to ChEMBL document CHEMBL5537110, “SIRT1-dependent mitochondrial biogenesis supports therapeutic effects of 4-butyl-polyhydroxybenzophenone compounds against NAFLD” (Eur J Med Chem, 2023):
Calls of active or inactive are those of the source. The rule behind the calls is not given here.

Tests used:
[1] = system: HepG2; assay: Recovery of mitochondrial activity in 40% FBS-induced steatosis human HepG2 cells model assessed as increase in number of mitochondria incubated with compound for 24 hrs followed by replacement with steatosis inducing DMEM with 40% FBS medium by MitoTracker Green based fluorescence analysis; format: functional, cell-based; conditions: dose 0.2-5 µM
[2] = biological target: T1, NAD-dependent protein deacetylase sirtuin-1 (Homo sapiens) (UniProt Q96EB6); assay: (§1) Binding affinity to SIRT1 (unknown origin) by surface plasmon resonance assay; conditions: filed as activator
T1 sequence (whole entry): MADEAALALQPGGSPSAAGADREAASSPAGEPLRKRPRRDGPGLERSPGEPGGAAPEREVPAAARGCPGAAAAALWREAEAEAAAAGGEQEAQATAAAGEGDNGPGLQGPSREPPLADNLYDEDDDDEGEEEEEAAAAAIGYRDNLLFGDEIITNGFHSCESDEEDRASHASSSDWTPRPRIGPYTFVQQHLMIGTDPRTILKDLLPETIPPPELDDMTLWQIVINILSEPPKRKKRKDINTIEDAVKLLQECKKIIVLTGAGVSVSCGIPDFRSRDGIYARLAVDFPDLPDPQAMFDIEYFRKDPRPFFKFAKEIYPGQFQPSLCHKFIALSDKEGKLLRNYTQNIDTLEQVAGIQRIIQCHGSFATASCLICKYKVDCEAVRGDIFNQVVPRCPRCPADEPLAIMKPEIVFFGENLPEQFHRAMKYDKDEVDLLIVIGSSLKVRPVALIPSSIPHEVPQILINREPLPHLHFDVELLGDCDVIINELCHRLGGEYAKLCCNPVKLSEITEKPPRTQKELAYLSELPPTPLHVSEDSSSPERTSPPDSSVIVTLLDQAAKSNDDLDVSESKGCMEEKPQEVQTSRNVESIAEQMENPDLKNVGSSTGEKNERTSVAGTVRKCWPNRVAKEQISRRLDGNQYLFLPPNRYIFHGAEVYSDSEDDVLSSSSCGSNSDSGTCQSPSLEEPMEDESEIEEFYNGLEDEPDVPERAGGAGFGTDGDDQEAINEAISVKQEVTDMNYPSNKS

[3] = biological target: T2, NAD-dependent protein deacetylase sirtuin-1 (Homo sapiens, UniProt Q96EB6); assay: as §1
T2 sequence (Q96EB6 whole entry): T1 sequence (whole entry)

[4] = biological target: T1, NAD-dependent protein deacetylase sirtuin-1 (Homo sapiens); assay: Binding affinity to SIRT1 in human HepG2 cells assessed as increase in protein abundance at 80 to 320 uM pretreated with compound for 30 mins followed by proteolysis for 15 mins by DARTS assay; format: cell-based; conditions: filed as activator, dose 80-320 µM, time 45.0 min
[5] = biological target: T1, NAD-dependent protein deacetylase sirtuin-1 (Homo sapiens); assay: Binding affinity to SIRT1 in human HepG2 cells assessed as increase in thermal stabilization of protein at 320 uM pretreated with compound for 30 mins followed by incubation at 40 to 65 degC for 3 mins by CETSA-WB analysis; format: cell-based; conditions: filed as activator, time 33.0 min
[6] = biological target: T3, Peroxisome proliferator-activated receptor gamma coactivator 1-alpha (Homo sapiens) (UniProt Q9UBK2); assay: Binding affinity to PGC1alpha in human HepG2 cells assessed as increase in thermal stability of protein pretreated with compound for 30 mins followed by incubation at 50 degC for 3 mins by CETSA-WB analysis; format: cell-based; conditions: filed as activator, dose 80-320 µM, time 33.0 min
T3 sequence (whole entry): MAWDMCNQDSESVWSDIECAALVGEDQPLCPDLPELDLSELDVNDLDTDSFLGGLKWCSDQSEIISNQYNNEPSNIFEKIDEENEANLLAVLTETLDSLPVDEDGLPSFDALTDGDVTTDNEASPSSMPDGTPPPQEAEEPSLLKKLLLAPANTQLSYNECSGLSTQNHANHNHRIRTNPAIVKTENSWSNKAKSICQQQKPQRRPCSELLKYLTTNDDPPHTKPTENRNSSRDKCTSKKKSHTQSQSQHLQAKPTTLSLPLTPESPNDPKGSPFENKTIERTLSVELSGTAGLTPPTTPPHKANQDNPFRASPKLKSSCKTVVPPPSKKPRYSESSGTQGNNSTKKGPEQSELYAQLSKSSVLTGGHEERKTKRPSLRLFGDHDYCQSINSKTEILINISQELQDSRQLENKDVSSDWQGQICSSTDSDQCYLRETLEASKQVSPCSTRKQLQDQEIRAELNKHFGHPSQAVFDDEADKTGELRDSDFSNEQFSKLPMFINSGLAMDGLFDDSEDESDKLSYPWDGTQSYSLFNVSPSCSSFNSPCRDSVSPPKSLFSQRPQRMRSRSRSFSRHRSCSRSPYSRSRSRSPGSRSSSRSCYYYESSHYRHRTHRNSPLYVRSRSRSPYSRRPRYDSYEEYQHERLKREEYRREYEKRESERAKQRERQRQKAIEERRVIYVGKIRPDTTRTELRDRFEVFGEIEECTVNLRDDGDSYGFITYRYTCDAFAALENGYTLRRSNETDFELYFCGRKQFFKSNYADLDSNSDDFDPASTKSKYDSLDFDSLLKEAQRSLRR

[7] = system: HepG2; assay: Recovery of mitochondrial biogenesis in 40% FBS-induced steatosis human HepG2 cells model assessed as increase in mitochondrial ND6 mRNA expression incubated for 24 hrs by qRT-PCR analysis; format: functional, cell-based; conditions: dose 0.2-5 µM
[8] = system: HepG2; assay: Inhibition of mitochondrial membrane potential dissipation in 40% FBS-induced steatosis human HepG2 cells model assessed as increase in mitochondrial membrane potential incubated in steatosis inducing DMEM with 40% FBS medium for 24 hrs followed by compound treatment by JC-1 staining based fluorescence microscopy; format: functional, cell-based; conditions: Mitochondria, dose 0.2-5 µM
[9] = system: HepG2; assay: Inhibition of liver injury in 40% FBS-induced steatosis human HepG2 cells model assessed as decrease in AST level at 0.2 to 5 uM incubated with compound for 24 hrs followed by replacement with steatosis inducing DMEM with 40% FBS medium; format: functional, cell-based; conditions: dose 0.2-5 µM
[10] = system: HepG2; assay: Inhibition of liver injury in human HepG2 cells assessed as increase in liver protection index by measuring increase in ratio of GSH to GSSG at 0.2 to 5 uM incubated with compound for 24 hrs followed by replacement with steatosis inducing DMEM with 40% FBS medium; format: functional, cell-based; conditions: dose 0.2-5 µM
[11] = system: Rattus norvegicus; assay: Hepatoprotective activity against high fat diet-fed NAFLD Sprague-Dawley rat model assessed as less ballooning degeneration and smaller fatty droplets in hepatocytes at 12.3 to 61.4 mg/kg, IG administered via gavage for 4 weeks by Hematoxylin-Eosin staining based analysis; format: functional, organism-based; conditions: dose 12.3-61.4 mg/kg
[12] = system: Rattus norvegicus; assay: Hepatoprotective activity against high fat diet-fed NAFLD Sprague-Dawley rat model assessed as decrease in serum ALT level administered intragastrically via gavage for 4 weeks; format: functional, organism-based; conditions: dose 12.3-61.4 mg/kg, route ig
[13] = system: Rattus norvegicus; assay: Hepatoprotective activity against high fat diet-fed NAFLD Sprague-Dawley rat model assessed as decrease in serum gamma-GT level administered intragastrically via gavage for 4 weeks; format: functional, organism-based; conditions: dose 12.3-61.4 mg/kg, route ig
[14] = system: HepG2; assay: Induction of mitochondrial biogenesis in human HepG2 cells assessed as mitochondrial ND6 protein expression incubated for 24 hrs in presence of SIRT1 inhibitor, EX527 by western blot analysis; format: functional, cell-based
[15] = system: HepG2; assay: Induction of mitochondrial biogenesis in human HepG2 cells assessed as mitochondrial ND6 mRNA expression incubated for 24 hrs in presence of SIRT1 inhibitor, EX527 by qRT-PCR analysis; format: functional, cell-based

- Activity [2]: Dose-Dependent Effect
- Kd [3]: 77.3 µM
- Activity [4]: Active
- Activity [5]: Active
- Activity [6]: Dose-Dependent Effect
Compound: CC(C)(C)c1ccc(C(=O)c2ccc(O)c(O)c2)cc1
- Activity [1]: Dose-Dependent Effect
- Activity [7]: Dose-Dependent Effect
- inhibition [8]: Dose-Dependent Effect
- inhibition [9]: Active
- inhibition [10]: Active
- Activity [11]: Active
- Activity [12]: Active
- Activity [13]: Active
- Activity [14]: inactive
- Activity [15]: inactive
